How the values were obtained:
Format in all cases: biochemical
[1] = molecular target: T1, FXIIa (Homo sapiens, UniProt P00748); test: Determination of Factor XIIa inhibition (chromogenic substrate S-2302); conditions: human FXIIa alpha, Ki category
T1 construct: FXIIa alpha
T1 sequence (P00748 373-615 limits assumed): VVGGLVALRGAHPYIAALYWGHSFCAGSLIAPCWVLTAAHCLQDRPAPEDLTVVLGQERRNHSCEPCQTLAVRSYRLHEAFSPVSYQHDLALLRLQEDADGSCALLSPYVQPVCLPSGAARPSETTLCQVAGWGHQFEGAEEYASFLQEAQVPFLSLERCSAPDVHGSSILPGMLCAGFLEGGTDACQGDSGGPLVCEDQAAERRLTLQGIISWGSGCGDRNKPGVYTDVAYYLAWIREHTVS
T1 sequence (P00748 20-372 partner limits assumed): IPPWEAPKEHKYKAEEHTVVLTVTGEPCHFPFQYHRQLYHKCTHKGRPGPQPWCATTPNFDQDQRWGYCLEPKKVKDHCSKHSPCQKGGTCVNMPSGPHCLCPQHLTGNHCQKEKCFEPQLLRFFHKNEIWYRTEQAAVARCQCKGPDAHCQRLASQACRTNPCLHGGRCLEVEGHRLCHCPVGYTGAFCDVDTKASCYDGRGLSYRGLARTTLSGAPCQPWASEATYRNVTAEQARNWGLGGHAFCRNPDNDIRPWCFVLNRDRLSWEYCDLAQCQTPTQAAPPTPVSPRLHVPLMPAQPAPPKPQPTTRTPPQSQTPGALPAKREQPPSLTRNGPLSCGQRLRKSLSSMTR
Summary of the method: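 Compound preincubated with 10 nM FXIIa for 10 min at 37° C in 50 mM Tris, 137 mM NaCl, pH 7.4, 5% DMSO, top concentration 500 μM; S-2302 added at Km. pNA release followed at 405 nm for 3 h; IC50 from initial rates, converted to Ki via Ki = IC50/(1+[S]/Km).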

[2] = molecular target: FXa (Homo sapiens, UniProt P00742); test: Determination of selectivity: FXa inhibition (chromogenic substrate S2765); conditions: fold selectivity for FXIIa over FXa (human); category
Sequence of FXa (P00742 235-488 limits assumed): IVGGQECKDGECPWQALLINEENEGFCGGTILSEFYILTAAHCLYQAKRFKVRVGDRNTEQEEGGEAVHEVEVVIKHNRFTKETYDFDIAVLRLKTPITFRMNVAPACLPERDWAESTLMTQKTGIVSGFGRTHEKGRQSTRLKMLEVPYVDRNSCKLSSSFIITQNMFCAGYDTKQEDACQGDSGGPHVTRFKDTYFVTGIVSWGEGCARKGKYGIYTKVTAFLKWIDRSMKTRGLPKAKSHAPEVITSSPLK
Sequence of FXa (P00742 41-179 partner limits assumed): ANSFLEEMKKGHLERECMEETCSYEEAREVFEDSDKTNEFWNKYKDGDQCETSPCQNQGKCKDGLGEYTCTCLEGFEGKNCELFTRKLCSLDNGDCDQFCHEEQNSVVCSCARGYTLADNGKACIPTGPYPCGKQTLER
Summary of the method: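 FXa (5 nM) preincubated with increasing compound (top 500 μM) for 10 mins at 37° C in 50 mM Tris, 137 mM NaCl pH 7.4, 5% DMSO, then S2765 added at its KM. Absorbance at 405 nm followed kinetically for 3 hours; IC50 from initial rates, converted to Ki by Cheng-Prusoff.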

[3] = molecular target: T2, thrombin (Homo sapiens, UniProt P00734); test: Determination of selectivity: thrombin inhibition (chromogenic substrate GPR); conditions: fold selectivity for FXIIa over thrombin (human); category
T2 construct: FXa (5 nM) and thrombin (5 nM)
Summary of the method: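 Thrombin (5 nM) preincubated with increasing compound concentrations (top 500 μM, 5% DMSO) 10 min at 37 °C in 50 mM Tris, 137 mM NaCl pH 7.4, then GPR chromogenic substrate at its KM. pNA release read kinetically at 405 nm for 3 h at 37 °C. IC50 from initial rates, converted to Ki via Cheng–Prusoff.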

Ki [1] [nM]	FXa (human)/FXIIa alpha (human) [2]	Structure (SMILES)	Thrombin (human)/FXIIa alpha (human) [3]
< 200	∘∘∘	Cn1nnc2cc(CNC(=O)[C@@H]3C[C@@H](Cc4ccc5ccccc5c4)CN3C(=O)[C@@H]3NCCC[C@@H]3C(=O)N3CCCC3)ccc21 [Example M05881, (2S,4R)-N-((1-methyl-1H-benzo[d][1,2,3]triazol-5-yl)methyl)-4-(naphthalen-2-ylmethyl)-1-((2R,3S)-3-(pyrrolidine-1-carbonyl)piperidine-2-carbonyl)pyrrolidine-2-carboxamide]	+++ (fold selectivity values greater than 100)
800 to 5000	∘∘∘	Cc1nnc2cc(CNC(=O)[C@@H]3C[C@@H](Cc4ccc(C(F)(F)F)cc4)CN3C(=O)[C@@H]3NCCC[C@@H]3C(=O)N3CCCC3)ccn12 [Example M05882, (2S,4R)-N-((3-methyl-[1,2,4]triazolo[4,3-a]pyridin-7-yl)methyl)-1-((2R,3S)-3-(pyrrolidine-1-carbonyl)piperidine-2-carbonyl)-4-(4-(trifluoromethyl)benzyl)pyrrolidine-2-carboxamide]	+++ (fold selectivity values greater than 100)
< 200	∘∘	Cc1ccc(C[C@@H]2C[C@@H](C(=O)NCc3cnc4[nH]cc(Cl)c4c3)N(C(=O)[C@@H]3NCCC[C@@H]3C(=O)N3CCCC3)C2)cc1 [Example M05899, (2S,4R)-N-((3-chloro-1H-pyrrolo[2,3-b]pyridin-5-yl)methyl)-4-(4-methylbenzyl)-1-((2R,3S)-3-(pyrrolidine-1-carbonyl)piperidine-2-carbonyl)pyrrolidine-2-carboxamide]	+ (fold selectivity values less than 10 (e.g. a fold selectivity value of less than 10 and greater than 1))
200 to 800	∘∘∘	Cc1ccc(C[C@@H]2C[C@@H](C(=O)NCC3CCn4c(C)nnc4C3)N(C(=O)[C@@H]3NCCC[C@@H]3C(=O)N3CCCC3)C2)cc1 (stereo partly drawn) [Example M05913, (2S,4R)-N-[(3-mthyl-5,6,7,8-tetrahydro-[1,2,4]triazolo[4,3-a]pyidin-7-yl)methyl]-4-(p-tolylmethyl)-1-[(2R,3S)-3-(pyrrolidine-1-carbonyl)piperidine-2-carbonyl]pyrrolidine-2-carboxamide]	+++ (fold selectivity values greater than 100)
< 200	∘∘∘	Cn1nnc2cc(CNC(=O)[C@@H]3C[C@@H](Cc4ccc(C5CC5)cc4)CN3C(=O)[C@@H]3NCCC[C@@H]3C(=O)N3CCCC3)ccc21 [Example M05934, (2S,4R)-4-(4-cyclopropylbenzyl)-N-((1-methyl-1H-benzo[d][1,2,3]triazol-5-yl)methyl)-1-((2R,3S)-3-(pyrrolidine-1-carbonyl)piperidine-2-carbonyl)pyrrolidine-2-carboxamide]	+++ (fold selectivity values greater than 100)
200 to 800	∘∘∘	CCCc1ccc(C[C@@H]2C[C@@H](C(=O)NCc3ccc4c(c3)nnn4C)N(C(=O)[C@@H]3NCCC[C@@H]3C(=O)N3CCCC3)C2)cc1 [Example M05935]	+++ (fold selectivity values greater than 100)
≥ 5000	∘∘	COc1ccc(CNC(=O)[C@@H]2C[C@@H](Cc3ccc(C)cc3)CN2C(=O)[C@@H]2NCCC[C@@H]2C(=O)N2CCCC2)cc1 [Example M05965, (2S,4R)-N-[(4-methoxyphenyl)methyl]-4-(p-tolylmethyl)-1-[(2R,3S)-3-(pyrrolidine-1-carbonyl)piperidine-2-carbonyl]pyrrolidine-2-carboxamide]	++ (a fold selectivity value of 10 to 100)
< 200	∘∘∘	Cn1nnc2cc(CNC(=O)[C@@H]3C[C@@H](CC4=CCC5(CC4)CC5)CN3C(=O)[C@@H]3NCCC[C@@H]3C(=O)N3CCCC3)ccc21 [Example M05991]	+++ (fold selectivity values greater than 100)

Second part, the molecule before the results:

Structure (SMILES)	Ki [1] [nM]	FXa (human)/FXIIa alpha (human) [2]	Thrombin (human)/FXIIa alpha (human) [3]
Cc1ccc(C[C@@H]2C[C@@H](C(=O)NCc3ccn4c(C)nnc4c3)N(C(=O)[C@@H]3NCCC[C@@H]3C(=O)N3CCCC3)C2)cc1 [Example M05855, (2S,4R)-N-((3-methyl-[1,2,4]triazolo[4,3-a]pyridin-7-yl)methyl)-4-(4-methylbenzyl)-1-((2R,3S)-3-(pyrrolidine-1-carbonyl)piperidine-2-carbonyl)pyrrolidine-2-carboxamide]	200 to 800	∘∘∘	+++ (fold selectivity values greater than 100)
Cn1nnc2cc(CNC(=O)[C@@H]3C[C@@H](Cc4ccc(C(F)(F)F)nc4)CN3C(=O)[C@@H]3NCCC[C@@H]3C(=O)N3CCCC3)ccc21 [Example M05863, (2S,4R)-N-((1-methyl-1H-benzo[d][1,2,3]triazol-5-yl)methyl)-1-((2R,3S)-3-(pyrrolidine-1-carbonyl)piperidine-2-carbonyl)-4-((6-(trifluoromethyl)pyridin-3-yl)methyl)pyrrolidine-2-carboxamide]	< 200	∘∘∘	+++ (fold selectivity values greater than 100)
Cc1ccc(C[C@@H]2C[C@@H](C(=O)NCC3CCc4c(cnn4C)C3)N(C(=O)[C@@H]3NCCC[C@@H]3C(=O)N3CCCC3)C2)cc1 (stereo partly drawn) [Example M05874, (2S,4R)-N-((1-methyl-4,5,6,7-tetrahydro-1H-indazol-5-yl)methyl)-4-(4-methylbenzyl)-1-((2R,3S)-3-(pyrrolidine-1-carbonyl)piperidine-2-carbonyl)pyrrolidine-2-carboxamide]	200 to 800	∘∘∘	+++ (fold selectivity values greater than 100)
COc1ccc(C[C@@H]2C[C@@H](C(=O)NCc3ccc4c(cnn4C)c3)N(C(=O)[C@@H]3NCCC[C@@H]3C(=O)N3CCCC3)C2)cn1 [Example M05875, (2S,4R)-4-((6-methoxypyridin-3-yl)methyl)-N-((1-methyl-1H-indazol-5-yl)methyl)-1-((2R,3S)-3-(pyrrolidine-1-carbonyl)piperidine-2-carbonyl)pyrrolidine-2-carboxamide]	200 to 800	∘∘∘	+++ (fold selectivity values greater than 100)
Cn1nnc2cc(CNC(=O)[C@@H]3C[C@@H](Cc4cccc5ccccc45)CN3C(=O)[C@@H]3NCCC[C@@H]3C(=O)N3CCCC3)ccc21 [Example M05877, (2S,4R)-N-((1-methyl-1H-benzo[d][1,2,3]triazol-5-yl)methyl)-4-(naphthalen-1-ylmethyl)-1-((2R,3S)-3-(pyrrolidine-1-carbonyl)piperidine-2-carbonyl)pyrrolidine-2-carboxamide]	< 200	∘∘∘	+++ (fold selectivity values greater than 100)
Cc1ccc(C[C@@H]2C[C@@H](C(=O)NCc3ccc4c(cnn4C)c3)N(C(=O)[C@@H]3NCCC[C@@H]3C(=O)N3CC(F)C3)C2)cc1 [Example M05878, (2S,4R)-1-((2R,3S)-3-(3-fluoroazetidine-1-carbonyl)piperidine-2-carbonyl)-N-((1-methyl-1H-indazol-5-yl)methyl)-4-(4-methylbenzyl)pyrrolidine-2-carboxamide]	< 200	∘∘∘	+++ (fold selectivity values greater than 100)

Source: patent US20240294498A1, “FACTOR XIIA INHIBITORS” (Lunac Therapeutics Ltd, priority 2021, published 2024)
